From patent publication US9879043B1, “Synthesis of non-natural cofactor analogs of S-adenosyl-L-methionine using methionine adenosyltransferase” (University of Kentucky Research Foundation, priority 2013, dated 2018)

Columns and labels:
Format in all cases: biochemical
[1] = target: T1, Sulfolobus solfataricus MAT (sMAT) (Saccharolobus solfataricus, UniProt Q980S9); conditions: ADP in place of ATP, 65° C. for 4 hr, standard assay conditions
T1 sequence (Q980S9 1-404): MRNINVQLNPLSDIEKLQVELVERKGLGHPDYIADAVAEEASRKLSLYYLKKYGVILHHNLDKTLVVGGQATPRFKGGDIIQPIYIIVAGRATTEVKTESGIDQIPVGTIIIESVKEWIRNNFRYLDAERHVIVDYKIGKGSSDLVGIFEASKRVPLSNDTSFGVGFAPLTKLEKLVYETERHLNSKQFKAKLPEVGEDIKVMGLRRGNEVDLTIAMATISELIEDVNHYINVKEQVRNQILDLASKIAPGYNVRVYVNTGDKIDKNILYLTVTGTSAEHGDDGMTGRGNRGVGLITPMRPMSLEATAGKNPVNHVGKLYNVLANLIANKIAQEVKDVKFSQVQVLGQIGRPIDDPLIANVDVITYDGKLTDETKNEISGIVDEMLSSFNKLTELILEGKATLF

[2] = target: human MAT I catalytic subunit alpha (hMAT1A) (Homo sapiens, UniProt Q00266); assay: MAT assay, turnover of S/Se-Met analogs to S(Se)AM analogs (RP-HPLC end point); conditions: 2 mM Met analog, 1 mM ATP, 5 μM MAT, pH 8, 4 h, 37° C.; average of two assays
Description: (§1) Standard uniform assay conditions (2 mM Met analog, 1 mM ATP, 5 μM MAT, 25 mM Tris, 5 mM MgCl2, 50 mM KCl, pH 8, 4 h) were adopted to facilitate this broad assessment. For the thermophilic counterpart (mMAT), reactions were conducted at 65° C., while all other reactions were incubated at 37° C. Production of SAM analogs was determined by an RP-HPLC end point assay to afford complete analysis of the desired SAM analog and/or any corresponding degradation products known to directly derive from the desired SAM analog intermediate.
(§2) To monitor MAT reactions, analytical RP HPLC employed a Luna C18 column (5 μm, 4.6 mm×250 mm; Phenomenex, Torrance, Calif., USA) [gradient of 10% B to 40% B over 15 min, 40% B to 75% B over 5 min (A=10 mM NaH2PO4, 5 mM octane sulfonic acid, pH was adjusted to 3.5 using phosphoric acid; B=acetonitrile) flow rate=1 mL min^−1; A254].
(§3) The sMAT and mMAT reactions were conducted at 65° C. while hMATs and eMAT were incubated at 37° C. Reactions were quenched by adding an equal volume of methanol followed by centrifugation (10,000×g for 15 min) to remove the precipitated protein and product formation for each reaction was subsequently analyzed by RP-HPLC using Method D (FIG. 15, first column). For each reaction, percent yield was based upon the integration of species at 254 nm and calculated by dividing the integrated area of product and/or decomposed product by the sum of integrated area of product and/or decomposed product and the remaining substrate. The assays were repeated twice under identical conditions, and Table 2 (and FIG. 5) represents an average value of two assays. The inclusion of adenine and 5′-R-thio-5′-adenosine in these calculations is based upon the established SAM and ATP chemical decomposition pathways which indicate adenine and 5′-R-thio-5′-adenosine to only derive from SAM (not ATP). All putative products were subsequently confirmed by high resolution electrospray ionization (ESI) mass spectra with positive (+) and/or negative (−) mode.

[3] = target: human MAT II catalytic alpha and regulatory beta subunit (hMAT2) (Homo sapiens, UniProt P31153); assay: as above; conditions: 2 mM Met analog, 1 mM ATP, 5 μM MAT, pH 8, 4 h, 37° C.; average of two assays
Description: as §1, §2, §3

[4] = target: human MAT II catalytic alpha subunit alone (hMAT2A) (Homo sapiens, UniProt P31153); assay: as above; conditions: 2 mM Met analog, 1 mM ATP, 5 μM MAT, pH 8, 4 h, 37° C.; average of two assays
Description: as §1, §2, §3

[5] = target: Escherichia coli MAT (eMAT) (Escherichia coli, UniProt P0A817); assay: as above; conditions: 2 mM Met analog, 1 mM ATP, 5 μM MAT, pH 8, 4 h, 37° C.; average of two assays
Description: as §1, with “intermediate. Putative SAM analog and SAM-derived degradative product formation was subsequently confirmed via high-resolution mass spectrometry (HRMS) analysis for all positive reactions (see Table 2).” for “intermediate.”
as §2
as §3, with “In vitro MAT reactions were conducted in a volume of 50 μl with 2 mM S/Se-alkylated analog (compounds 2-30), 1 mM ATP and 5 μM purified MAT in 25 mM Tris buffer pH 8.0, 5 mM MgCl2, 50 mM KCl for 4 h. The sMAT” for “The sMAT”

[6] = target: T1, Sulfolobus solfataricus MAT (sMAT); conditions: 2 mM analog, 1 mM ATP, 5 μM sMAT, pH 8.0, 4 h at 65° C.; average of two assays
Description: In-vitro sMAT assay: In vitro sMAT reactions were conducted in a volume of 50 μl with 2 mM S/Se-alkylated analog, 1 mM ATP and 5 μM purified sMAT in 25 mM Tris buffer pH 8.0, 5 mM MgCl2, 50 mM KCl for 4 h at 65° C. Reactions were quenched by adding an equal volume of methanol followed by centrifugation (10,000×g for 15 min) to remove the precipitated protein and product formation for each reaction was subsequently analyzed by reverse phase HPLC (RP-HPLC) using method described below. For each reaction, percent yield was based upon the integration of species at 254 nm and calculated by dividing the integrated area of product and/or decomposed product by the sum of integrated area of product and/or decomposed product and the remaining substrate. The assays were repeated twice under identical conditions, and Table 4 (and FIG. 17) represents an average value of two assays. The inclusion of adenine and 5′-R-thio-5′-adenosine in these calculations is based upon the established SAM and ATP chemical decomposition pathways which indicate adenine and 5′-R-thio-5′-adenosine to only derive from SAM (not ATP). All putative products were subsequently confirmed by high resolution electrospray ionization (ESI) mass spectra with positive (+) and/or negative (−) mode.
RP-HPLC method: Reactions were quenched by the addition of equal volume of methanol followed by centrifugation at 10,000 g for 15 min to remove precipitated protein before applying on an analytical Varian ProStar HPLC [Luna C18 column, 5 μm, 4.6 mm×250 mm; Phenomenex, Torrance, Calif., USA; gradient of 10% B to 40% B over 15 min, 40% B to 75% B over 5 min (A=10 mM NaH2PO4, 5 mM octane sulfonic acid, pH was adjusted to 3.5 using phosphoric acid; B=acetonitrile) flow rate=1 mL min^−1; A254].

[7] = target: T2, Methanocaldococcus jannaschii MAT (mMAT) (Methanocaldococcus jannaschii, UniProt Q58605); conditions: 2 mM Met analog, 1 mM ATP, 5 μM MAT, pH 8, 4 h, 65° C.; average of two assays
T2 sequence (Q58605 1-406): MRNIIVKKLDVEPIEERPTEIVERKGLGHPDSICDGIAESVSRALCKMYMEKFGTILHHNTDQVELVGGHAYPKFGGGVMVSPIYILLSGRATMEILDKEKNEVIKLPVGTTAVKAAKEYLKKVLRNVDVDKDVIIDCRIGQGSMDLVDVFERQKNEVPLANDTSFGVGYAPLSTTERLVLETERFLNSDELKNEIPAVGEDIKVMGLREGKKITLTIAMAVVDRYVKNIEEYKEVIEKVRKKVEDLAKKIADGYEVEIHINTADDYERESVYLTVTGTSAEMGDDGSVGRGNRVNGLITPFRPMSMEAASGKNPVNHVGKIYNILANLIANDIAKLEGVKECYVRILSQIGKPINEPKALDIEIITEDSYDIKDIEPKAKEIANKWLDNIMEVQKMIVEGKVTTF
Description: as §1, §2, §3

Row | Compound | product formation from ADP and methionine [1] | Percentage Turn-over hMAT1A [2] [%] | Percentage Turn-over hMAT2 [3] [%] | Percentage Turn-over hMAT2A [4] [%] | Percentage Turn-over eMAT [5] [%] | Percentage Turn-Over (sMAT) [6] [%] | Percentage Turn-over mMAT [7] [%]
1 | Nc1ncnc2c1ncn2[C@@H]1O[C@H](COP(=O)(O)OP(=O)(O)O)[C@@H](O)[C@H]1O [ADP] | no detectable product | – | – | – | – | – | –
2 | [N-]=[N+]=NCCSCC[C@H](N)C(=O)O [compound 17, (2S)-2-amino-4-[(2-azidoethyl)sulfanyl]butanoic acid] | – | 4 | 49 | 18 | 0 | 50 | 29
3 | CC(C)CCSCC[C@H](N)C(=O)O [compound 18, (2S)-2-amino-4-[(3-methylbutyl)sulfanyl]butanoic acid] | – | 0 | 0 | 0 | 0 | 36 | 1
4 | C#CCCSCC[C@H](N)C(=O)O [compound 10, (2S)-2-amino-4-(but-3-yn-1-ylsulfanyl)butanoic acid] | – | 0 | 40 | 12 | 0 | 30 | 16
5 | CCCCSCC[C@H](N)C(=O)O [compound 13, (2S)-2-amino-4-(butylsulfanyl)butanoic acid] | – | 0 | 13 | 12 | 0 | 27 | 12
6 | CC(C)SCC[C@H](N)C(=O)O [compound 9, (2S)-2-amino-4-(propan-2-ylsulfanyl)butanoic acid] | – | 2 | 2 | 2 | 0 | 53 | 8
7 | CC(C)CSCC[C@H](N)C(=O)O [compound 14, (2S)-2-amino-4-[(2-methylpropyl)sulfanyl]butanoic acid] | – | 0 | 0 | 0 | 0 | 57 | 1
8 | C#CCSCC[C@H](N)C(=O)O [compound 4, (2S)-2-amino-4-(prop-2-yn-1-ylsulfanyl)butanoic acid] | – | 2 | 20 | 6 | 2 | 36 | 6
